In article PMC6522927, “Fibrate-based N-acylsulphonamides targeting carbonic anhydrases: synthesis, biochemical evaluation, and docking studies” (Journal of Enzyme Inhibition and Medicinal Chemistry, 2019):
“Also recorded” adds a separate entry of the source.

Experiments:
hCA I = molecular target: T1, hCA I (Homo sapiens, UniProt P00915); assay: stopped-flow CO2 hydrase assay, hCA I; assay type: biochemical; settings: for inhibition of hCA I (in words): result stated in words; for Ki: recombinant hCA I, CO2 hydration, 15 min preincubation
T1 construct: made in house
Protocol: (§1) An Applied Photophysics stopped-flow instrument has been used for assaying the CA catalysed CO2 hydration activity. Phenol red (0.2 mM) has been used as indicator, working at the absorbance maximum of 557 nm, with 20 mM Hepes (pH 7.5, for α-CAs) as buffer, and 20 mM NaClO4 (for maintaining constant the ionic strength), following the initial rates of the CA-catalysed CO2 hydration reaction for a period of 10–100 s. The CO2 concentrations ranged from 1.7 to 17 mM for the determination of the kinetic parameters and inhibition constants. In particular, CO2 was bubbled in distilled deionised water for 30 min till saturation. A CO2 kit (Sigma, Milan, Italy) was used to measure the concentration in serially diluted solutions from the saturated one at the same temperature. For each inhibitor at least six traces of the initial 5–10% of the reaction have been used for determining the initial velocity. The uncatalysed rates were determined in the same manner and subtracted from the total observed rates. Stock solutions of inhibitor ([…]) were prepared in distilled–deionised water and dilutions up to 0.1 nM were done thereafter with the assay buffer. Inhibitor and enzyme solutions were preincubated together for 15 min at room temperature prior to assay, in order to allow for the formation of the E–I complex or for the eventual active site mediated hydrolysis of the inhibitor. The inhibition constants were obtained by non-linear least-squares methods using PRISM 3 and the Cheng–Prusoff equation and represent the average from at least three different determinations. All recombinant CA isoforms were obtained in-house as previously reported[24]^,[25].

hCA II = molecular target: T2, hCA II (Homo sapiens, UniProt P00918); assay: stopped-flow CO2 hydrase assay, hCA II; assay type: biochemical; settings: for inhibition of hCA II (in words): result stated in words; for Ki: recombinant hCA II, CO2 hydration, 15 min preincubation
T2 construct: made in house
Protocol: as §1

hCA XII = molecular target: T3, hCA XII (Homo sapiens, UniProt O43570); assay: stopped-flow CO2 hydrase assay, hCA XII; assay type: biochemical; settings: result stated in words
T3 construct: made in house
Protocol: as §1

hCA IX = molecular target: T4, hCA IX (Homo sapiens, UniProt Q16790); assay: stopped-flow CO2 hydrase assay, hCA IX; assay type: biochemical; settings: for inhibition of hCA IX (in words): result stated in words
T4 construct: made in house
Protocol: as §1

T3 sequence (O43570 25-354): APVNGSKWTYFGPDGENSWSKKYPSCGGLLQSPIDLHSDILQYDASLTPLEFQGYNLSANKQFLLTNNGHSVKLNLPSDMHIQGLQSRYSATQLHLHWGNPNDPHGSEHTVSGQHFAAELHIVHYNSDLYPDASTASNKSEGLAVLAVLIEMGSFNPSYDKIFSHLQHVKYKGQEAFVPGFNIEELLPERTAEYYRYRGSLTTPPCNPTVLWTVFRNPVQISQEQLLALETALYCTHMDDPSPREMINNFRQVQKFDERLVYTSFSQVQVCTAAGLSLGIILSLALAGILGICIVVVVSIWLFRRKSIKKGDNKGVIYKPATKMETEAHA
T1 sequence (P00915 whole entry): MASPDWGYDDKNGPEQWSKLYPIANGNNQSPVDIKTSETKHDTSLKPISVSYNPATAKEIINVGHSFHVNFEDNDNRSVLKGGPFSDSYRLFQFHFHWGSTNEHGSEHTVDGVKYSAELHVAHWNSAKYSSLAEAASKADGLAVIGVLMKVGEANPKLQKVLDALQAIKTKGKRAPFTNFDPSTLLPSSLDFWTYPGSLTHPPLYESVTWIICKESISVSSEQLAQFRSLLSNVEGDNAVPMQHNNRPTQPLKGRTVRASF

| SMILES | inhibition of hCA I (in words) (hCA I) | inhibition of hCA II (in words) (hCA II) | inhibition of hCA XII (in words) (hCA XII) | inhibition of hCA IX (in words) (hCA IX) | Ki (hCA I) | Ki (hCA II) | Ki (hCA IX; recombinant hCA IX, CO2 hydration, 15 min preincubation) | melting point |
| --- | --- | --- | --- | --- | --- | --- | --- | --- |
| CC(C)(Oc1ccc(Cl)cc1)C(=O)NS(=O)(=O)c1ccccc1 [Compound 15] | completely inactive | completely inactive | completely inactive | completely inactive |  |  |  |  |
| Cc1ccc(C)c(OCCCC(C)(C)C(=O)NS(=O)(=O)c2ccccc2)c1 [Compound 16] | completely inactive | completely inactive | completely inactive | completely inactive |  |  |  |  |
| CC(C)(Oc1ccc(CCNC(=O)c2ccc(Cl)cc2)cc1)C(=O)NS(=O)(=O)c1ccccc1 [Compound 17] | moderate inhibition | moderate inhibition |  | moderate inhibition |  |  |  |  |
| CC(C)(Oc1ccc(C(=O)c2ccc(Cl)cc2)cc1)C(=O)NS(=O)(=O)c1ccccc1 [Compound 18] | moderate inhibition; also recorded: submicromolar | moderate inhibition |  | moderate inhibition; also recorded: submicromolar | < 10 µM | 1.3 µM | 0.44 µM |  |
| COc1ccc(S(=O)(=O)NC(=O)C(C)(C)Oc2ccc(C(=O)c3ccc(Cl)cc3)cc2)cc1 [Compound 20, 2-[4-(4-Chlorobenzoyl)phenoxy]-N-[(4-methoxyphenyl)sulfonyl]-2-methylpropanamide] |  |  |  |  |  |  |  | 188 to 189 °C |
| CC(C)(Oc1ccc(C(=O)c2ccc(Cl)cc2)cc1)C(=O)NS(=O)(=O)c1ccc(Cl)cc1 [Compound 21, 2-[4–(4-Chlorobenzoyl)phenoxy]-N-[(4-chlorophenyl)sulfonyl]-2-methylpropanamide] |  |  |  |  | < 10 µM |  |  | 204 to 205 °C (dec.) |
| CC(C)(Oc1ccc(C(=O)c2ccc(Cl)cc2)cc1)C(=O)NS(=O)(=O)c1ccc([N+](=O)[O-])cc1 [Compound 22, 2-[4–(4-Chlorobenzoyl)phenoxy]-2-methyl-N-[(4-nitrophenyl)sulfonyl]propanamide] |  |  |  |  |  | 0.016 µM |  | 196 to 198 °C |
| CC(=O)Nc1ccc(S(=O)(=O)NC(=O)C(C)(C)Oc2ccc(C(=O)c3ccc(Cl)cc3)cc2)cc1 [Compound 23, N-{[4-(acetylamino)phenyl]sulfonyl}-2-[4–(4-chlorobenzoyl)phenoxy]-2-methylpropanamide] |  |  |  |  |  |  |  | 226 to 228 °C |
| CC(C)(Oc1ccc(C(=O)c2ccc(Cl)cc2)cc1)C(=O)NS(=O)(=O)c1ccc(NC(=O)c2ccccc2)cc1 [Compound 24, N-{4-[({2-[4–(4-chlorobenzoyl)phenoxy]-2-methylpropanoyl}amino)sulfonyl]phenyl} benzamide] | marked effect | marked effect |  |  | < 10 µM | 0.077 µM |  | 232 to 234 °C |
| O=C(COc1ccc(C(=O)c2ccccc2)cc1)NS(=O)(=O)c1ccccc1 [Compound 26, 2-(4-Benzoylphenoxy)-N-(phenylsulphonyl)acetamide] | did not induce a sensible inhibition | did not induce a sensible inhibition | did not induce a sensible inhibition | did not induce a sensible inhibition |  |  |  | 61 to 62 °C |
| CCCC(Oc1ccc(C(=O)c2ccccc2)cc1)C(=O)NS(=O)(=O)c1ccccc1 (stereo not shown) [Compound 27, 2-(4-Benzoylphenoxy)-N-(phenylsulphonyl)pentanamide] | did not induce a sensible inhibition | did not induce a sensible inhibition | did not induce a sensible inhibition | did not induce a sensible inhibition |  |  |  |  |
